# Data published in ChEMBL document CHEMBL4354883, “Design, Synthesis, and Biological Evaluation of HSP90 Inhibitor-SN38 Conjugates for Targeted Drug Accumulation” (J Med Chem, 2020).
# The source made the active and inactive calls. No cut-off for these calls is given here.
# Tests used:
# [1] = Drug uptake in human A549 cells assessed as blue shift in absorption spectrum at 5 uM by UV-visible absorption spectral analysis; assay type: ADME, cell-based; conditions: a549, 5 µM
# [2] = Drug uptake in human A549 cells assessed as maximum emission peaks at 430 nm at 5 uM by fluorescence emission spectral analysis; assay type: ADME, cell-based; conditions: a549, 5 µM
# [3] = Drug uptake in human A549 cells assessed as blue fluorescence at 5 uM after 12 hrs by confocal laser scanning microscopic analysis; assay type: ADME, cell-based; conditions: a549, 12 h
# [4] = tested on: A549; test: Antiproliferative activity against human A549 cells assessed as reduction in cell viability after 72 hrs by SRB assay; assay type: functional, cell-based; conditions: A549, 72 h
# [5] = tested on: HCT-116; test: Antiproliferative activity against human HCT116 cells assessed as reduction in cell viability after 72 hrs by SRB assay; assay type: functional, cell-based; conditions: HCT-116, 72 h
# [6] = tested on: MIA PaCa-2; test: Antiproliferative activity against human MIAPaCa2 cells assessed as reduction in cell viability after 72 hrs by SRB assay; assay type: functional, cell-based; conditions: MIA PaCa-2, 72 h
# [7] = tested on: CAPAN-1; test: Antiproliferative activity against human Capan1 cells assessed as reduction in cell viability after 72 hrs by SRB assay; assay type: functional, cell-based; conditions: CAPAN-1, 72 h
# [8] = tested on: L02; test: Cytotoxicity agains human HL7702 cells assessed as reduction in cell viability after 72 hrs by SRB assay; assay type: cell-based; conditions: L02, 72 h
# [9] = tested on: A549; test: Downregulation of TOP1 expression in human A549 cells after 24 hrs by Western blot analysis; assay type: functional, cell-based
# [10] = tested on: HCT-116; test: Downregulation of TOP1 expression in human HCT116 cells after 24 hrs by Western blot analysis; assay type: functional, cell-based
# [11] = tested on: Mus musculus; test: In vivo inhibition of HSP90 in mouse xenografted with human Capan1 cells assessed as increase in HSP70 protein expression at 36 mg/kg, iv for every 2 days measured at 2 hrs post last dose by Western blot analysis; assay type: functional, organism-based
# [12] = tested on: Mus musculus; test: In vivo inhibition of HSP90 in mouse xenografted with human Capan1 cells assessed as decrease in AKT protein expression at 36 mg/kg, iv for every 2 days measured at 2 hrs post last dose by Western blot analysis; assay type: functional, organism-based
# [13] = Prodrug release in tumor of mouse xenografted with human Capan1 cells assessed as increase in 7-ethyl-10-hydroxycamptothecin level at 36 mg/kg, iv after 24 hrs by LC-MS/MS analysis; assay type: ADME, organism-based, Neoplasm; conditions: in vivo
# [14] = Prodrug release in mouse plasma xenografted with human HCT116 cells assessed as increase in 7-ethyl-10-hydroxycamptothecin level at 15 mg/kg, iv administered as single dose and measured after 30 mins to 72 hrs by LC-MS/MS analysis; assay type: ADME, organism-based; conditions: in vivo
# [15] = Prodrug release in tumor of mouse xenografted with human HCT116 cells assessed as increase in 7-ethyl-10-hydroxycamptothecin level at 15 mg/kg, iv administered as single dose by LC-MS/MS analysis; assay type: ADME, organism-based, Neoplasm; conditions: in vivo
# [16] = tested on: Mus musculus; test: In vivo inhibition of topoisomerase 1 in mouse xenografted with human Capan1 cells assessed as increase in phosphorylated KAP1 expression at 36 mg/kg, iv for every 2 days measured at 2 hrs post last dose by Western blot analysis; assay type: functional, organism-based
# [17] = tested on: Mus musculus; test: Down regulation of topoisomerase 1 expression in mouse xenografted with human Capan1 cells at 36 mg/kg, iv for every 2 days measured at 2 hrs post last dose by Western blot analysis; assay type: functional, organism-based
structure (smiles),measurement,setting,value
CCc1c2c(nc3ccc(OC(=O)N4CCC(N5CCCCC5)CC4)cc13)-c1cc3c(c(=O)n1C2)COC(=O)[C@]3(O)CC [IRINOTECAN],Drug uptake,[1],Active
same,Drug uptake,[2],Active
same,Drug uptake,[3],Not Active
same,IC50,[4],1560 nM
same,IC50,[5],498 nM
same,IC50,[6],1330 nM
same,IC50,[7],1120 nM
same,IC50,[8],1300 nM
same,TOP1 downregulation,[9],Active
same,inhibition,[10],Active
same,inhibition,[11],inactive
same,inhibition,[12],inactive
same,Drug metabolism,[13],Metabolite_Notdetected
same,Drug metabolism,[14],Metabolite_Detected
same,Drug metabolism,[15],Metabolite_Detected
same,inhibition,[16],Active
same,inhibition,[17],Active
